The values that follow come from patent US20240190855A1 (Relay Therapeutics, Inc., priority 2021, published 2024).

The experiment concerns the target T1, CDK2/Cyclin E complex (Homo sapiens, UniProt P24941).
T1 construct: purchased Eurofins 14-475
As to the kind of experiment: CDK2/Cyclin E fluorescence-based microfluidic mobility shift assay (CDK2 Biochemical Caliper Assay). To be noted: read-out: Biochemical CDK2/CyclinE Caliper IC50. As for the experimental part: Compounds of the present disclosure were tested in a CDK2/Cyclin E fluorescence-based microfluidic mobility shift assay (PerkinElmer).
The active wild type CDK2/Cyclin E complex was purchased from Eurofins (14-475). Compound stocks were prepared in DMSO and were serially diluted into 11 concentrations by 3-fold dilution. […] Compounds were incubated in the presence of CDK2/Cyclin E complex and ATP for 30 minutes at room temperature. Catalytic reaction was initiated with the addition of 5 uL of a 4× peptide solution containing 6 uM fluorescently label substrate peptide, FL Peptide 18 (aa sequence 5-FAM-QSPKKG, PerkinElmer, 760362) in 1× reaction buffer.
The final reaction components were 0.1 nM CDK2/Cyclin E, 2000 uM ATP and 1.5 uM FL Peptide 18 and 1% DMSO. Reactions were incubated RT for 20 hr and terminated with 75 uL of a stopping solution containing 0.5 M EDTA. Samples were analyzed using a LabChip EZ reader (PerkinElmer).
As to `CC(C)NC(=O)O[C@@H]1CC[C@H](c2cc(Nc3ncnc4ncccc34)n[nH]2)C1` (single isomer, unassigned) [Example 400], the IC50 was at most 100 nM.

With `CC(C)NC(=O)O[C@H]1CC[C@@H](c2cc(Nc3ncnc4ncccc34)n[nH]2)C1` (single isomer, unassigned) [Example 401], the IC50 was at most 100 nM.

Regarding `Cc1cnn(-c2ccnc(Nc3cc([C@H]4CC[C@@H](OC(=O)NC(C)C)C4)[nH]n3)c2)c1` (single isomer, unassigned) [Example 402], the IC50 is 100 to 250 nM.

On to `Cc1cnn(-c2ccnc(Nc3cc([C@@H]4CC[C@H](OC(=O)NC(C)C)C4)[nH]n3)c2)c1` (single isomer, unassigned) [Example 403], for which the IC50 lay in the range of 100 to 250 nM.

In the case of `c1cc2ncsc2c(Nc2cc([C@H]3CC[C@@H](Oc4nscc4C4CC4)C3)[nH]n2)n1` (single isomer, unassigned) [Example 404], the IC50 is at most 100 nM.

As to `c1cc2ncsc2c(Nc2cc([C@@H]3CC[C@H](Oc4nscc4C4CC4)C3)[nH]n2)n1` (single isomer, unassigned) [Example 405], the IC50 is at most 100 nM.

With `Cc1cc(CC(=O)Nc2cc([C@@H]3CC[C@H](Cc4cn[nH]c4C(C)C)C3)[nH]n2)on1` (single isomer, unassigned) [Example 408], the IC50 was in the range of 250 to 1000 nM.

In the case of `Cc1cc(CC(=O)Nc2cc([C@H]3CC[C@@H](Cc4cn[nH]c4C(C)C)C3)[nH]n2)on1` (single isomer, unassigned) [Example 409], the IC50 lay in the range of 100 to 250 nM.

`COCc1cc(C(=O)Nc2cc([C@H]3CC[C@@H](Oc4nnccc4C(C)C)C3)[nH]n2)n(C)n1` (single isomer, unassigned) [Example 410]: the IC50 is at most 100 nM.

`COCc1cc(C(=O)Nc2cc([C@@H]3CC[C@H](Oc4nnccc4C(C)C)C3)[nH]n2)n(C)n1` (single isomer, unassigned) [Example 411]: the IC50 was at most 100 nM.

As for `COCc1cc(C(=O)Nc2cc([C@@H]3CC[C@H](Oc4nscc4C4CC4)C3)[nH]n2)n(C)n1` (single isomer, unassigned) [Example 413], the IC50 was at most 100 nM.

Turning to `COCc1cc(C(=O)Nc2cc([C@H]3CC[C@@H](Oc4nscc4C4CC4)C3)[nH]n2)n(C)n1` (single isomer, unassigned) [Example 414], the IC50 was at most 100 nM.

In the case of `COCc1cc(C(=O)Nc2cc([C@H]3CC[C@@H](Oc4ccc(C(C)C)nn4)C3)[nH]n2)n(C)n1` (single isomer, unassigned) [Example 415], the IC50 was in the range of 250 to 1000 nM.

Take `CC(C)NC(=O)O[C@@H]1CC[C@H](c2cc(N)n[nH]2)C1` (single isomer, unassigned) [Example 417]: the IC50 fell in the range of 1000 to 100000 nM.

On to `CC(C)NC(=O)O[C@H]1CC[C@@H](c2cc(N)n[nH]2)C1` (single isomer, unassigned) [Example 418], for which the IC50 was 1000 to 100000 nM.

Turning to `COCc1cc(C(=O)Nc2cc([C@H]3CC[C@@](C)(CC(=O)NC(C)C)C3)[nH]n2)n(C)n1` (single isomer, unassigned) [Example 419], the IC50 is 1000 to 100000 nM.

Turning to `COCc1cc(C(=O)Nc2cc([C@@H]3CC[C@](C)(CC(=O)NC(C)C)C3)[nH]n2)n(C)n1` (single isomer, unassigned) [Example 420], the IC50 is 1000 to 100000 nM.

Take `CC(=O)Nc1cc([C@H]2CC[C@@H](Oc3nscc3C3CC3)C2)[nH]n1` (single isomer, unassigned) [Example 421]: the IC50 was at most 100 nM.

For the compound `CC(=O)Nc1cc([C@@H]2CC[C@H](Oc3nscc3C3CC3)C2)[nH]n1` (single isomer, unassigned) [Example 422], the IC50 was at most 100 nM.

Take `CC(=O)Nc1nc2ccnc(Nc3cc([C@H]4CC[C@@H](OC(=O)NC(C)C)C4)[nH]n3)c2s1` (single isomer, unassigned) [Example 423]: the IC50 was at most 100 nM.

Regarding `CC(=O)Nc1nc2ccnc(Nc3cc(C4CC[C@H](OC(=O)NC(C)C)C4)[nH]n3)c2s1` (single isomer, unassigned) [Example 424], the IC50 was at most 100 nM.

`CC(=O)Nc1cc([C@H]2CC[C@@H](Oc3nnccc3C(C)C)C2)[nH]n1` (single isomer, unassigned) [Example 427]: the IC50 was at most 100 nM.

Take `CC(=O)Nc1cc([C@@H]2CC[C@H](Oc3nnccc3C(C)C)C2)[nH]n1` (single isomer, unassigned) [Example 428]: the IC50 is at most 100 nM.

On to `CC(C)NC(=O)O[C@@H]1CC[C@H](c2cc(NC=O)n[nH]2)C1` (single isomer, unassigned) [Example 440], for which the IC50 lay within 250 to 1000 nM.

As to `CC(C)NC(=O)O[C@H]1CC[C@@H](c2cc(NC=O)n[nH]2)C1` (single isomer, unassigned) [Example 441], the IC50 was in the range of 250 to 1000 nM.

Take `Cc1cc(CC(=O)Nc2ncc([C@H]3CC[C@@H](OC(=O)NC(C)C)C3)s2)on1` (single isomer, unassigned) [Example 442]: the IC50 was at most 100 nM.

For the compound `Cc1cc(CC(=O)Nc2ncc([C@@H]3CC[C@H](OC(=O)NC(C)C)C3)s2)on1` (single isomer, unassigned) [Example 443], the IC50 was at most 100 nM.

On to `COCc1nc2ccnc(Nc3cc([C@H]4CC[C@@H](Oc5nnccc5C(C)C)C4)[nH]n3)c2s1` (single isomer, unassigned) [Example 444], for which the IC50 was at most 100 nM.

Consider `COCc1nc2ccnc(Nc3cc([C@@H]4CC[C@H](Oc5nnccc5C(C)C)C4)[nH]n3)c2s1` (single isomer, unassigned) [Example 445], for which the IC50 was at most 100 nM.

Regarding `COCc1cc(C(=O)Nc2cc([C@@H]3CC[C@@](C)(CC(=O)NC(C)C)C3)[nH]n2)n(C)n1` (single isomer, unassigned) [Example 447], the IC50 fell in the range of 1000 to 100000 nM.

`COCc1cc(C(=O)Nc2cc([C@H]3CC[C@](C)(CC(=O)NC(C)C)C3)[nH]n2)n(C)n1` (single isomer, unassigned) [Example 448]: the IC50 fell in the range of 1000 to 100000 nM.

Turning to `COCc1cc(C(=O)Nc2cc([C@@H]3CC[C@H](Oc4ccc(C(C)C)nn4)C3)[nH]n2)n(C)n1` (single isomer, unassigned) [Example 449], the IC50 lay within 1000 to 100000 nM.

On to `Cc1cc(CC(=O)Nc2cc([C@H]3CC[C@@H](OC(=O)[C@H](N)C(C)C)C3)[nH]n2)on1` (single isomer, unassigned) [Example 450], for which the IC50 was at most 100 nM.

As for `Cc1cc(CC(=O)Nc2cc([C@@H]3CC[C@H](OC(=O)[C@H](N)C(C)C)C3)[nH]n2)on1` (single isomer, unassigned) [Example 451], the IC50 was 100 to 250 nM.

In the case of `Cc1cc(CC(=O)Nc2cc([C@H]3CC[C@@H](NC(=O)[C@H](O)C(C)C)C3)[nH]n2)on1` (single isomer, unassigned) [Example 452], the IC50 was in the range of 1000 to 100000 nM.

Turning to `Cc1cc(CC(=O)Nc2cc([C@@H]3CC[C@H](NC(=O)[C@H](O)C(C)C)C3)[nH]n2)on1` (single isomer, unassigned) [Example 453], the IC50 is 1000 to 100000 nM.

For `CCOC(=O)c1cc2c(Nc3cc([C@H]4CC[C@@H](OC(=O)NC(C)C)C4)[nH]n3)nc(C)cn2n1` (single isomer, unassigned) [Example 462], the IC50 was at most 100 nM.

With `CCOC(=O)c1cc2c(Nc3cc([C@@H]4CC[C@H](OC(=O)NC(C)C)C4)[nH]n3)nc(C)cn2n1` (single isomer, unassigned) [Example 463], the IC50 is at most 100 nM.
